This passage reports GI50 and TGI results from PubChem BioAssay (NCI).

Molecules are shown by their SMILES.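 Protocol summary: plate cells (96-well), add compound at 5 concentrations, incubate 48 h, interpolate endpoints linearly. GI50 marks 50% less growth. TGI denotes the concentration required for complete inhibition of growth.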

What all share (experiment): NCI tumour cell line growth inhibition, 48 h
Assay [1] relates to SF-268 CNS.
In assay [2] the test system is SR leukemia.
For assay [3], the system named is RPMI-8226 leukemia.
Assay [4] concerns MOLT-4 leukemia.
In assay [5] the test system is LOX IMVI melanoma.
Assay [6] relates to UACC-62 melanoma.
The test system of assay [7] is HOP-62 NSCLC.
For assay [8], the system named is CAKI-1 renal.
Assay [9] relates to M14 melanoma.
In assay [10] the test system is TK-10 renal.

`COc1cc2c(cc1OC)-c1cc(OC)c(OC)cc1C(CN(C)C)C2` (centres undefined): the GI50 in [1], in assay [2], in assay [3], in assay [4], in assay [5] and in assay [6] was above 10 µM each time. Besides, the GI50 in assay [7], in assay [8], in assay [9] and in assay [10] was above 10 µM each time. In addition, the TGI in assay [1], in assay [2], in [3], in assay [4], in assay [5] and in assay [6] was above 10 µM each time. Also, the TGI in assay [7], in assay [8], in [9] and in [10] was above 10 µM throughout.

Take `COc1ccc2ncnc(Nc3ccc(OCc4ccccc4)cc3)c2c1`: the GI50 in assay [1] was 13.9 µM; in assay [2], 11.6 µM; in [3], 7.58 µM; in [4] it was 7.56 µM; in assay [5], 7.85 µM; in [6], 6.12 µM. Besides, the GI50 in [7] was 10.6 µM; in [8], 3.85 µM; in [9] it was 8.48 µM; in assay [10] it was 3.68 µM. Further, the TGI is above 25 µM in assay [1]; above 25 µM in assay [2]; above 25 µM in assay [3]; above 23.5 µM in assay [4]; above 25 µM in assay [5]; above 18.1 µM in [6]. Further, the TGI was above 25 µM in [7], above 17.2 µM in assay [8], above 25 µM in assay [9] and 18.4 µM in assay [10].

Regarding `O=C(NC1CCCCC1)NS(=O)(=O)c1ccc(N2N=C3c4ccccc4CC3C2c2ccc(Cl)cc2)cc1` (centres undefined), the GI50 in assay [1] is 6.78 µM; in assay [2] it was 0.406 µM; in assay [3], 3.57 µM; in [4], 4.04 µM; in assay [5] it was 10.3 µM; in assay [6], 14.9 µM. The GI50 was 15 µM in [7], 12.8 µM in assay [8], 10.8 µM in assay [9] and 4.5 µM in assay [10]. Also, the TGI was found to be 34.9 µM in [1]; 1.85 µM in [2]; 22.6 µM in assay [3]; 19.4 µM in assay [4]; 21.9 µM in [5]; 32.7 µM in assay [6]. Further, the TGI in [7] is 30.9 µM; in assay [8], 31.8 µM; in assay [9], 24.4 µM; in assay [10] it was 19.8 µM.

With `CC(C)[C@@H]1NC(=O)[C@]2(C)CSC(=N2)c2ccnc(c2)CNC(=O)C[C@@H](/C=C/CCS)OC1=O`, the GI50 in [1] is 0.421 µM; in [2], 0.0641 µM; in assay [3] it was 1.49 µM; in [4], 0.128 µM; in assay [5], 0.208 µM; in [6] it was 0.0746 µM. Besides, the GI50 was 0.0525 µM in [7], 2.86 µM in assay [8], 0.0957 µM in assay [9] and 0.178 µM in assay [10]. Further, the TGI was above 100 µM in assay [1]; above 100 µM in assay [2]; above 27.7 µM in [3]; above 100 µM in assay [4]; 0.588 µM in assay [5]; 0.552 µM in assay [6]. For the same compound, the TGI in assay [8] was 15.6 µM; in assay [9], above 100 µM; in assay [10] it was 1.64 µM.

In the case of `O=[N+]([O-])c1cc([N+](=O)[O-])c(C(F)(F)F)cc1NN=C(c1ccc(O)cc1)c1ccc(O)cc1`, the GI50 in [1] was 2.63 µM; in assay [2] it was 1.55 µM; in [3], 3.71 µM; in [4], 1.8 µM; in assay [5] it was 1.57 µM; in [6], 2.07 µM. Further, the GI50 was 3.51 µM in assay [7], 3.34 µM in assay [8], 3.18 µM in assay [9] and 6.06 µM in [10]. The TGI in assay [1] is 7.66 µM; in assay [2] it was 6.42 µM; in assay [3], 12.6 µM; in assay [4] it was 5.77 µM; in assay [5], 3.21 µM; in assay [6], 4.6 µM. Also, the TGI in assay [7] was 35.8 µM; in [8] it was 15.3 µM; in [9], 12.7 µM; in [10], 33.4 µM.

For the compound `C[C@@H]1CC[C@H]2C(C)(C)[C@H]3C[C@@]12CC[C@@]3(C)O`, the TGI in assay [1] was above 100 µM; in assay [2], 48.6 µM; in assay [3], 53.6 µM; in assay [4] it was above 100 µM; in assay [5], above 100 µM; in assay [6], above 100 µM. Besides, the TGI in assay [7], in [8], in assay [9] and in assay [10] was above 100 µM each time.

`CCOC(=O)/C(=C/c1ccc(OC)cc1)N(CC)CC`: the TGI in assay [1], in assay [2], in assay [3], in assay [4], in assay [5] and in [6] was above 100 µM each time. The TGI in assay [7], in [8], in assay [9] and in [10] was above 100 µM in each case.

Regarding `CC(=O)OCc1ccc2c(c1)C(O)NC(=O)O2` (centres undefined), the TGI in assay [1] was above 100 µM; in assay [2], above 100 µM; in assay [3], 73.6 µM; in assay [4] it was above 100 µM; in assay [5] it was above 100 µM; in assay [6] it was above 100 µM. In addition, the TGI in [7], in assay [8], in assay [9] and in [10] was above 100 µM in each case.

For the compound `CC(=C(c1ccc(OCCN2CCCCC2)cc1)c1ccc(OCCN2CCCCC2)cc1)c1ccc(Cl)cc1`, the GI50 in assay [1] was 0.436 µM; in assay [2], 0.195 µM; in [3], 0.53 µM; in assay [4] it was 0.449 µM; in assay [5], 0.406 µM; in assay [6], 0.442 µM. The GI50 was 0.439 µM in assay [7], 0.397 µM in assay [8], 0.438 µM in assay [9] and 0.384 µM in assay [10]. For the same compound, the TGI amounted to 0.873 µM in [1]; 0.707 µM in assay [2]; 1.19 µM in assay [3]; 0.982 µM in assay [4]; 0.754 µM in assay [5]; 0.845 µM in [6]. The TGI in assay [7] stood at 0.888 µM; in assay [8] it was 0.74 µM; in assay [9], 0.837 µM; in assay [10], 0.755 µM.

For the compound `CC(=O)OC1(C)N=NC2(CCCCC2)O1` (centres undefined), the TGI in assay [1], in assay [2], in [3], in assay [4], in [5] and in [6] was above 100 µM throughout. Further, the TGI in assay [7], in assay [8], in assay [9] and in assay [10] was above 100 µM each time.

As to `C=C(C)C12OC1[C@@]1(C)C(=CC2=O)CCC(O)[C@@H]1C` (some centres undefined), the TGI in assay [1] amounted to 14.7 µM; in [2], 11.3 µM; in [3] it was 24 µM; in assay [4], 3.66 µM; in assay [5], 16.6 µM; in [6], 75.4 µM. In addition, the TGI in assay [7] is 11.7 µM; in [8], 3 µM; in assay [9], 18.1 µM; in assay [10], above 100 µM.

Regarding `CC(C)(C)[Si](C)(C)OC1[C@@H](O[Si](C)(C)C(C)(C)C)[C@@H](CNC(=O)NC(=O)C(F)(F)F)O[C@H]1n1cnc2c(NC(=O)Nc3ccccc3)ncnc21` (some centres undefined), the GI50 in assay [1] was 6.22 µM; in assay [2] it was 1.52 µM; in assay [3], 7.11 µM; in assay [4], 1.67 µM; in assay [5] it was 6.12 µM; in [6], 7.45 µM. Further, the GI50 in assay [7] is 7.41 µM; in assay [8], 8.24 µM; in assay [9], 5.72 µM; in assay [10] it was 9.77 µM. Further, the TGI in assay [1] came to 13.4 µM; in [2], 5.25 µM; in [3], 28.6 µM; in assay [4], 7.03 µM; in assay [5] it was 12.3 µM; in assay [6], 15.9 µM. For the same compound, the TGI worked out at 14.1 µM in assay [7], 17 µM in assay [8], 13.2 µM in assay [9] and 17.2 µM in assay [10].

Take `Cc1ccc(-c2nc(N3CCNCC3)c3oc(-c4ccc(C)cc4)nc3n2)cc1`: the GI50 is 2.25 µM in [1]; 0.371 µM in [2]; 2.48 µM in [3]; 2.2 µM in assay [4]; 1.88 µM in assay [5]; 13.3 µM in assay [6]. In addition, the GI50 is 10.1 µM in assay [7], 24.1 µM in assay [8], 1.83 µM in [9] and 5.43 µM in assay [10]. Besides, the TGI in assay [1] was determined as 5.61 µM; in assay [2], 1.85 µM; in assay [3], 5.28 µM; in assay [4], 4.69 µM; in assay [5], 3.46 µM; in assay [6], 28.6 µM. Moreover, the TGI is above 100 µM in assay [7], above 45.6 µM in [8], 3.69 µM in [9] and 14 µM in assay [10].
